Experimental data taken from patent publication US8242145B2, “Cyclic diaryl ether compounds as antagonists of prostaglandin D2 receptors” (Panmira Pharmaceuticals, LLC, priority 2008, dated 2012).

Key:
[1] = molecular target: T1, recombinant human CRTH2 receptor (Homo sapiens, UniProt Q9Y5Y4); assay: GTPγS binding assay; assay type: biochemical; conditions: +HSA; read-out: hDP2 GTPγS μM (+HSA)
T1 construct: expressed in transfected cells
T1 sequence (Q9Y5Y4 1-395): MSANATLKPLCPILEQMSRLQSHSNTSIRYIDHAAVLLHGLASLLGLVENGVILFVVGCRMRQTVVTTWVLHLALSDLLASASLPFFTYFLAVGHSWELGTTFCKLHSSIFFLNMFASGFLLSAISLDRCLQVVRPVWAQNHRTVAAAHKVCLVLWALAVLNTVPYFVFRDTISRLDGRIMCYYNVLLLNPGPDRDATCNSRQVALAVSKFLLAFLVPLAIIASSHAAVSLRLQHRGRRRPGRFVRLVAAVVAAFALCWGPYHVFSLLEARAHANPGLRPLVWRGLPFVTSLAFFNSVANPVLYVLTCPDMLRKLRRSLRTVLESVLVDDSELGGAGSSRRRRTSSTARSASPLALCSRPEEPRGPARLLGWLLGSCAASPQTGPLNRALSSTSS
Procedure, shortened: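 Membranes from CHO cells stably expressing recombinant receptor (~12.5 μg/well), incubated 60 min at 30° C with 0.05 nM [^35S]-GTPγS, 80 nM PGD2, 5 μM GDP in pH 7.4 Hepes buffer with 0.2% human serum albumin. Filter-bound radioactivity counted; specific binding = total minus binding without PGD2; IC50 from titration curves.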

human DP2 receptor = molecular target: T2, human DP2 receptor (Homo sapiens, UniProt Q9Y5Y4); assay: DP2/CRTH2 radioligand binding assay using [3H]PGD2; conditions: hDP2 (CRTH2) binding assay
T2 construct: expressed in transfected cells
T2 sequence (Q9Y5Y4 1-395): T1 sequence (Q9Y5Y4 1-395)
Procedure, shortened: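 HEK293 membranes with stable recombinant human DP2, incubated with 1 nM [3H]PGD2 and compound 60 min at room temperature in pH 7.4 HEPES/MnCl2/EDTA buffer, with or without 0.2% human serum albumin.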

human DP1 receptor = molecular target: T3, human DP1 receptor (Homo sapiens, UniProt Q13258); assay: DP1 radioligand binding assay using [3H]BWA868C; conditions: hDP1 binding
T3 construct: tissue Biological Specialty Corporation; host or cells: human platelets, membranes
T3 sequence (Q13258 1-359): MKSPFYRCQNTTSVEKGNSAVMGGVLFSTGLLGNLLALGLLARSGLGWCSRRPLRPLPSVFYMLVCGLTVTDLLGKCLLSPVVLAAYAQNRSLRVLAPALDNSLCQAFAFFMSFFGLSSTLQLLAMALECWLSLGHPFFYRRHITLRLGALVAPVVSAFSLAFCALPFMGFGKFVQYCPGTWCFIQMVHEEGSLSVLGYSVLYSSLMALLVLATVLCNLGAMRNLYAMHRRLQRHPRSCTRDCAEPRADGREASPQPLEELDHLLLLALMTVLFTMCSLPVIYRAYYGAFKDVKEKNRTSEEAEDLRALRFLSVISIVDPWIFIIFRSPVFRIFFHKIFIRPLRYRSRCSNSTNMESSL
Procedure, shortened: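 Human platelet membranes (20 μg protein/well) incubated 60 min at room temperature with 2 nM [3H]BWA868C in 50 mM Hepes, 10 mM MnCl2, 1 mM EDTA, ±0.2% human serum albumin, pH 7.4. Bound label measured after filtration; nonspecific binding defined with 10 μM BW A868C. IC50 from titration curves.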

Structure (SMILES) | IC50 [1] [µM] | IC50 (human DP2 receptor) [nM] | IC50 (human DP1 receptor) [nM]
C[C@@H]1[C@H](c2ccccc2)OC(=O)N1Cc1cc(C(F)(F)F)ccc1Oc1cc(CC(=O)O)ccc1-c1cnn(C)c1 [Compound 1-79, [3-[2-((4R,5S)-4-Methyl-2-oxo-5-phenyl-oxazolidin-3-ylmethyl)-4-trifluoromethyl-phenoxy]-4-(1-methyl-1H-pyrazol-4-yl)-phenyl]-acetic acid] | < 0.3 | < 300 | > 1000
C[C@@H]1[C@H](c2ccccc2)OC(=O)N1Cc1cc(C(F)(F)F)ccc1Oc1cc(CC(=O)O)ccc1-c1ccccc1 [Compound 1-80, {2-[2-((4R,5S)-4-Methyl-2-oxo-5-phenyl-oxazolidin-3-ylmethyl)-4-trifluoromethyl-phenoxy]-biphenyl-4-yl}-acetic acid] | < 0.3 | < 300 | > 1000
COc1ccc(CC(=O)O)cc1Oc1cc(Br)ccc1CN1C(=O)O[C@H](c2ccccc2)[C@@H]1C [Compound 1-81, {3-[5-Bromo-2-((4S,5R)-4-methyl-2-oxo-5-phenyl-oxazolidin-3-ylmethyl)-phenoxy]-4-methoxy-phenyl}-acetic acid] | < 0.3 | < 300 | > 1000
COc1ccc(CC(=O)O)cc1Oc1cc(Br)ccc1CN1C(=O)O[C@@H](c2ccccc2)[C@H]1C [Compound 1-82, {3-[5-Bromo-2-((4R,5S)-4-Methyl-2-oxo-5-phenyl-oxazolidin-3-ylmethyl)-phenoxy]-4-methoxy-phenyl}-acetic acid] | < 0.3 | < 300 | > 1000
CCOc1ccc(CC(=O)O)cc1Oc1ccc(C(F)(F)F)cc1CN1C(=O)O[C@@H](c2ccccc2)[C@H]1C [Compound 1-83, {4-Ethoxy-3-[2-((4R,5S)-4-methyl-2-oxo-5-phenyl-oxazolidin-3-ylmethyl)-4-trifluoromethyl-phenoxy]-phenyl}-acetic acid] | < 0.3 | < 300 | > 1000
Cn1cc(-c2ccc(Oc3cccc(CC(=O)O)c3)c(CN3CCOC3=O)c2)cn1 [Compound 1-84, {3-[4-(1-Methyl-1H-pyrazol-4-yl)-2-(2-oxo-oxazolidin-3-ylmethyl)-phenoxy]-phenyl}-acetic acid] | 0.3 to 1 | 300 to 1000 | > 1000
CS(=O)(=O)c1ccc(-c2ccc(Oc3cccc(CC(=O)O)c3)c(CN3CCOC3=O)c2)cc1 [Compound 1-85, {3-[4′-Methanesulfonyl-3-(2-oxo-oxazolidin-3-ylmethyl)-biphenyl-4-yloxy]-phenyl}-acetic acid] | 0.3 to 1 | < 300 | > 1000
COc1ccc(CC(=O)O)cc1Oc1ccc(Cl)cc1CN1CCOC1=O [Compound 1-86, {3-[4-Chloro-2-(2-oxo-oxazolidin-3-ylmethyl)-phenoxy]-4-methoxy-phenyl}-acetic acid] | < 0.3 | < 300 | > 1000
C[C@@H]1[C@H](c2ccccc2)OC(=O)N1Cc1cc(Br)ccc1Oc1cc(CC(=O)O)ccc1O [Compound 1-87, {3-[4-Bromo-2-((4R,5S)-4-methyl-2-oxo-5-phenyl-oxazolidin-3-ylmethyl)-phenoxy]-4-hydroxy-phenyl}-acetic acid] | < 0.3 | < 300 | > 1000
CCOc1ccc(CC(=O)O)cc1Oc1ccc(Br)cc1CN1C(=O)O[C@@H](c2ccccc2)[C@H]1C [Compound 1-88, {3-[4-Bromo-2-((4R,5S)-4-methyl-2-oxo-5-phenyl-oxazolidin-3-ylmethyl)-phenoxy]-4-ethoxy-phenyl}-acetic acid] | < 0.3 | < 300 | > 1000
O=C(O)Cc1cc(Cl)cc(Oc2ccc(Br)cc2CN2CCOC2=O)c1 [Compound 1-89, {3-[4-Bromo-2-(2-oxo-oxazolidin-3-ylmethyl)-phenoxy]-5-chloro-phenyl}-acetic acid] | < 0.3 | < 300 | > 1000
COc1ccc(CC(=O)O)cc1Oc1ccc(NC(=O)c2ccc(Cl)cc2)cc1CN1CCOC1=O [Compound 1-91, {3-[4-(4-Chloro-benzoylamino)-2-(2-oxo-oxazolidin-3-ylmethyl)-phenoxy]-4-methoxy-phenyl}-acetic acid] | > 1 | < 300 | > 1000
O=C(O)Cc1cccc(Oc2ccc(Br)cc2CN2C(=O)O[C@H]3Cc4ccccc4[C@H]32)c1 [Compound 2-1, {3-[4-Bromo-2-((3aR,8aS)-2-oxo-8,8a-dihydro-3aH-indeno[1,2-d]oxazol-3-ylmethyl)-phenoxy]-phenyl}-acetic acid] | < 0.3 | < 300 | > 1000
O=C(O)Cc1cccc(Oc2ccc(Br)cc2CN2C(=O)O[C@@H]3Cc4ccccc4[C@@H]32)c1 [Compound 2-2, {3-[4-Bromo-2-((3aS,8aR)-2-oxo-8,8a-dihydro-3aH-indeno[1,2-d]oxazol-3-ylmethyl)-phenoxy]-phenyl}-acetic acid] | < 0.3 | < 300 | > 1000
O=C(O)Cc1cccc(Oc2ccc(C(F)(F)F)cc2CN2C(=O)O[C@@H]3Cc4ccccc4[C@@H]32)c1 [Compound 2-3, {3-[2-((3aS,8aR)-2-Oxo-8,8a-dihydro-3aH-indeno[1,2-d]oxazol-3-ylmethyl)-4-trifluoromethyl-phenoxy]-phenyl}-acetic acid] | 0.3 to 1 | < 300 | > 1000
COc1ccc(CC(=O)O)cc1Oc1ccc(Br)cc1CN1C(=O)O[C@H]2Cc3ccccc3[C@H]21 [Compound 2-4, {3-[4-Bromo-2-((3aR,8aS)-2-oxo-8,8a-dihydro-3aH-indeno[1,2-d]oxazol-3-ylmethyl)-phenoxy]-4-methoxy-phenyl}-acetic acid] | < 0.3 | < 300 | > 1000
COc1ccc(CC(=O)O)cc1Oc1ccc(Br)cc1CN1C(=O)O[C@@H]2Cc3ccccc3[C@@H]21 [Compound 2-5, {3-[4-Bromo-2-((3aS,8aR)-2-oxo-8,8a-dihydro-3aH-indeno[1,2-d]oxazol-3-ylmethyl)-phenoxy]-4-methoxy-phenyl}-acetic acid] | < 0.3 | < 300 | > 1000
O=C(O)Cc1cccc(Oc2ccc(C(F)(F)F)cc2CN2C(=O)OC3c4ccccc4CC32)c1 (stereo not drawn) [Compound 2-7, {3-[2-(2-Oxo-4,8b-dihydro-3aH-indeno[2,1-d]oxazol-3-ylmethyl)-4-trifluoromethyl-phenoxy]-phenyl}-acetic acid] | < 0.3 | < 300 | > 1000
O=C(O)Cc1cccc(Oc2ccc(Br)cc2CN2CC(c3ccc(Cl)cc3)CC2=O)c1 (stereo not drawn) [Compound 3-2, (3-{4-Bromo-2-[4-(4-chloro-phenyl)-2-oxo-pyrrolidin-1-ylmethyl]-phenoxy}-phenyl)-acetic acid] | > 1 | < 300 | 300 to 1000
O=C(O)CCn1c2c(c3ccccc31)C[C@H](NS(=O)(=O)c1ccc(F)cc1)CC2 [Ramatroban, reference compound] | 0.3 to 1 | 300 to 1000 | > 1000
